Results as given in US20200261391A1, “METHODS OF REDUCING THE RISK OF A CARDIOVASCULAR EVENT IN A STATIN-TREATED SUBJECT BY INCREASING SERUM AND PLASMA EPA AND DPA LEVELS” (Amarin Pharmaceuticals Ireland Limited, priority 2019, published 2020).
Values joined by “and” are separate entries in the source; they are usually repeats but may differ in a detail not shown here. Identical values can stand only once.

Tested on: patients with elevated triglyceride levels on statin therapy with established cardiovascular disease or at high risk
Assay: REDUCE-IT trial: time to first occurrence of adjudicated cardiovascular endpoint events, AMR101 4 g daily vs placebo
Type: in vivo, human
Text: The following study, also referred to as the REDUCE-IT clinical trial, was a large cardiovascular (CV) outcome trial designed to assess CV risk reduction benefit of AMR101 treatment (commercially known as VASCEPA®) versus placebo on the 5-point primary composite endpoint: CV death, non-fatal stroke, non-fatal myocardial infarction (MI), coronary revascularizations, or unstable angina requiring hospitalization.
A multi-center, prospective, randomized, double-blind, placebo-controlled, parallel-group study was performed to evaluate the effect of AMR101 (4 g per day) on cardiovascular health and mortality in hypertriglyceridemic patients with cardiovascular disease or at high risk for cardiovascular disease. The intended expanded indication of the study was treatment with AMR101 as an add-on to statin therapy to reduce the risk of cardiovascular events in patients with clinical cardiovascular disease or with multiple risk factors for cardiovascular disease.
The primary objective of this study was, in patients at LDL-C goal while on statin therapy, with established cardiovascular disease (CVD) or at high risk for CVD, and hypertriglyceridemia (e.g., fasting triglycerides(TG)≥200 mg/dL and <500 mg/dL), to evaluate the effect of AMR101 4 g daily on time from randomization to first occurrence of any component of the composite of the following major CV events: CV death; nonfatal MI; (including silent MI; electrocardiograms (ECGs) were performed annually for the detection of silent MIs); nonfatal stroke; coronary revascularization; and unstable angina determined to be caused by myocardial ischemia by invasive/non-invasive testing and requiring emergent hospitalization.
The key secondary objective of this study was to evaluate the effect of AMR101 4 g daily on the time from randomization to the first occurrence of the composite of following major CV events: CV death, nonfatal MI (including silent MI), and nonfatal stroke.
Other secondary objectives for this study were to evaluate the effect of therapy on time from randomization to the first occurrence of the following individual or composite endpoints: composite of CV death or nonfatal MI (including silent MI); fatal or nonfatal MI (including silent MI); non-elective coronary revascularization represented as the composite of emergent or urgent classifications; CV death; unstable angina determined to be caused by myocardial ischemia by invasive/non-invasive testing and requiring emergent hospitalization; fatal or nonfatal stroke; composite of total mortality, nonfatal MI (including silent MI), or nonfatal stroke; and total mortality.
Primary Efficacy Endpoint: The primary efficacy endpoint was time from randomization to the first occurrence of the composite of the following clinical events: CV death; nonfatal MI (including silent MI; ECGs were performed annually for the detection of silent MIs); nonfatal stroke; coronary revascularization; and unstable angina determined to be caused by myocardial ischemia by invasive/non-invasive testing and requiring emergent hospitalization. The first occurrence of any of these major adverse vascular events during the follow-up period of the study were included in the incidence.
Secondary Efficacy Endpoints: The key secondary efficacy endpoint was the time from randomization to the first occurrence of the composite of CV death, nonfatal MI (including silent MI), or nonfatal stroke. […]

[1] = adjudicated tertiary endpoint, listed as AMR101
[2] = adjudicated tertiary endpoint, listed as Icosapent Ethyl
[3] = vs placebo, median follow up 4.9 years
[4] = vs placebo, time to first event
[5] = vs placebo, time to first occurrence

CC/C=C\C/C=C\C/C=C\C/C=C\C/C=C\CCCC(=O)OCC [icosapent ethyl, eicosapentaenoic acid ethyl ester]
Amputation for PVD, patients with event (adjudicated tertiary endpoint): (0.5%) | Cardiac Arrest, patients with event (adjudicated tertiary endpoint): (0.5%) | Cardiac Arrhythmias Requiring Hospitalization of ≥24 Hours, patients with event (adjudicated tertiary endpoint): (4.6%) | Carotid Revascularization, patients with event (adjudicated tertiary endpoint): (0.8%) | Coronary Revascularization, patients with event (adjudicated tertiary endpoint): (9.2%) | Elective Revascularization, patients with event (adjudicated tertiary endpoint): (4.7%) | Emergent Revascularization, patients with event (adjudicated tertiary endpoint): (1.0%) | Ischemic Stroke, patients with event (adjudicated tertiary endpoint): (2.0%) | New Heart Failure Requiring Hospitalization, patients with event (adjudicated tertiary endpoint): (3.4%) | Primary Endpoint in Patients with Diabetes at Baseline, patients with event (adjudicated tertiary endpoint): (18.1%) | Salvage Revascularization, patients with event (adjudicated tertiary endpoint): (0.0%) | Sudden Cardiac Death, patients with event (adjudicated tertiary endpoint): 1.5% | Transient Ischemic Attack, patients with event (adjudicated tertiary endpoint): (1.6%) | Urgent Revascularization, patients with event (adjudicated tertiary endpoint): (4.4%) | Hemorrhagic Stroke, patients with event [1]: 0.3% | New Heart Failure, patients with event [1]: 4.1% | Hemorrhagic Stroke, patients with event [2]: (0.3%) | New Heart Failure, patients with event [2]: (4.1%) | Sudden Cardiac Death, patients with event [2]: (1.5%) | key secondary composite endpoint, patients with event (first occurrence of CV death, nonfatal MI or nonfatal stroke, median follow up 4.9 years): 11.2% | primary composite endpoint, patients with event (first occurrence of CV death, nonfatal MI, nonfatal stroke, coronary revascularization or unstable angina, median follow up 4.9 years): 17.2% | cardiovascular death, patients with event (in vivo): 4.3% | total mortality, patients with event (in vivo): 6.7% | key secondary composite endpoint, number needed to treat (median follow up 4.9 years): 28 | primary composite endpoint, number needed to treat (median follow up 4.9 years): 21 | New Onset of Diabetes, patients with event (patients with diabetes at baseline excluded): (3.8%) | Amputation for PVD, HR (vs placebo): 1.04 | Cardiac Arrest, HR (vs placebo): 0.52 | Cardiac Arrhythmias Requiring Hospitalization of ≥24 Hours, HR (vs placebo): 1.21 | Carotid Revascularization, HR (vs placebo): 1.18 | Coronary Revascularization, HR (vs placebo): 0.66 | Elective Revascularization, HR (vs placebo): 0.68 | Emergent Revascularization, HR (vs placebo): 0.62 | Hemorrhagic Stroke, HR (vs placebo): 1.28 | Ischemic Stroke, HR (vs placebo): 0.64 | New Heart Failure Requiring Hospitalization, HR (vs placebo): 0.97 | New Heart Failure, HR (vs placebo): 0.95 | Primary Endpoint in Patients with Diabetes at Baseline, HR (vs placebo): 0.77 | Salvage Revascularization, HR (vs placebo): 0.00 | Sudden Cardiac Death, HR (vs placebo): 0.69 | Transient Ischemic Attack, HR (vs placebo): 1.32 | Urgent Revascularization, HR (vs placebo): 0.66 | cardiac arrest, reduction (vs placebo): 48% | cardiovascular death, HR (vs placebo): 0.80 | cardiovascular death, relative risk reduction (vs placebo): 20% | composite of cardiovascular death or nonfatal myocardial infarction, RRR (vs placebo): 25% | composite of total mortality, nonfatal myocardial infarction, or nonfatal stroke, RRR (vs placebo): 23% | fatal or nonfatal myocardial infarction, RRR (vs placebo): 31% | fatal or nonfatal stroke, RRR (vs placebo): 28% | hospitalization for unstable angina, RRR (vs placebo): 32% | myocardial infarction, HR (vs placebo): 0.69 | primary endpoint risk reduction, post hoc analysis excluding patients with diarrhea (vs placebo): 25% | stroke, HR (vs placebo): 0.72 | sudden cardiac death, reduction (vs placebo): 31% | total mortality, HR (vs placebo): 0.87 | total mortality, relative risk reduction (vs placebo): 13% | urgent or emergent revascularization, RRR (vs placebo): 35% | key secondary composite endpoint, absolute risk reduction [3]: 3.6% | primary composite endpoint, absolute risk reduction [3]: 4.8% | New Onset of Diabetes, HR (vs placebo, patients with diabetes at baseline excluded): 1.04 | key secondary composite endpoint, relative risk reduction [4]: 26% and 26.5% | primary composite endpoint, relative risk reduction [4]: 25% and 24.8% | key secondary composite endpoint, HR [5]: 0.74 | primary composite endpoint, HR [5]: 0.75
